Results on 2 compounds are retold here after patent US20250084080A1, “CRYSTALLINE AND SALT FORMS OF AN NLRP3 INHIBITOR” (BioAge Labs, Inc., priority 2023, published 2025).

In brackets after ≈: the same amount, converted by molar mass.

Common to all, as to format: physicochemical
A short description of data set [1]: Exposure of Pattern C in ambient condition (variable temperature XRPD). To be noted: 23° C., 27% RH. The method, then:
Pattern C is an anhydrate. It was obtained in variable temperature XRPD experiment by heating Pattern A to 100° C. under the nitrogen atmosphere. Pattern C is of high crystallinity. According to the DSC thermogram of Pattern A, Pattern C has a melting peak at Tonset of 134.2° C. Pattern C is a metastable form.

Data set [2] can be described thus: Bulk stability (solid state, 1 week; HPLC, XRPD, IC, color). The conditions noted are these: 25° C./92.5% RH open, 40° C./75% RH open, 60° C. tight container. The method, then: Bulk stability of free form Pattern B was evaluated at 25° C./92.5% RH in an open container, at 40° C./75% RH in an open container and at 60° C. in a tight container over 1 week.
Data set [3] in a line: Solubility at 37° C. in buffers and biorelevant media, XRPD of residual solid. The conditions noted are these: for XRPD of residual solid: 24 h; for solubility: thermodynamic from solid. As for the experimental part:
Solubility of BAL-0748 free form Pattern B was investigated in pH 1.2 HCl buffer, pH 4.5 50 mM acetate buffer, pH 6.8 50 mM phosphate buffer, water, pH 1.6 FaSSGF, pH 6.5 FaSSIF-v1, pH 5.0 FeSSIF-v1 and 2% HPMC+1% Pluronic F68 in pH 4.5 50 mM acetate buffer at 37° C. for 2 h and 24 h. Residual solids after the solubility test were analyzed by XRPD.
Solubility of the free form Pattern A, the HCl salt Pattern A, the phosphate salt Pattern A, and the sodium salt Pattern A was measured in pH 1.2 HCl buffer, pH 4.5 acetate buffer (50 mM), pH 6.8 phosphate buffer (50 mM), water, pH 1.6 FaSSGF, pH 6.5 FaSSIF-v1, pH 5.0 FeSSIF-v1, and 2% HPMC+1% Pluronic F68 in pH 4.5 acetate buffer (50 mM) at 37° C. for 2 hours and 24 hours.
10.4 mg of the free form Pattern A, 10.0 mg of the free form Pattern B, 10.8 mg of the HCl salt Pattern A, 12.2 mg of the phosphate salt Pattern A, or 10.5 mg of the sodium salt Pattern A was weighed into a 20 mL glass vial, respectively. 5 mL of solubility medium was added. The salt amount used was equivalent to 10 mg anhydrous free form. Obtained suspensions were stirred at 37° C. at 400 rpm and sampled at 2 hours and at 24 hours. The samples were centrifuged at 37° C. at 14,000 rpm for 5 min. Supernatants were analyzed by HPLC and PH meter for solubility and pH value, respectively. Residual solids (wet cakes) from the 24 hours samples were also characterized by XRPD to determine physical form.

A short description of data set [4]: Hygroscopicity by dynamic vapor sorption (DVS) at 25° C. To be noted: DVS at 25° C. The method, then: Dynamic vapor sorption (DVS) was performed on an Intrinsic, Advantage or Adventure with an oven temperature of 25° C. using water as a solvent. The sample mass was about 5-10 mg using the following method: • Cycle: 40-0-95-0-40% RH • Stage Step: 10% • Equilibrium: 0.002 dm/dt (%/min) • Minimum dm/dt stability duration: 60 min • Maximum dm/dt stage time: 360 min. Hygroscopicity of free form Pattern B was evaluated by dynamic vapor sorption (DVS) test at 25° C. […] It absorbed about 0.8% water at 80% RH at 25° C.

Turning to `CCOc1cc(C(=O)N(C)Cc2cnc(CO)c3cn[nH]c23)ccc1-c1cc(F)cc(F)c1` [Pattern C, 2-ethoxy-3′,5′-difluoro-N-((4-(hydroxymethyl)-1H-pyrazolo[4,3-c]pyridin-7-yl)methyl)-N-methyl-[1,1′-biphenyl]-4-carboxamide], the “Form conversion after exposure in ambient condition” value in data set [1] is given as “converted to Pattern A”.

Consider `CCOc1cc(C(=O)N(C)Cc2cnc(CO)c3cn[nH]c23)ccc1-c1cc(F)cc(F)c1` [Free form Pattern B, 2-ethoxy-3′,5′-difluoro-N-((4-(hydroxymethyl)-1H-pyrazolo[4,3-c]pyridin-7-yl)methyl)-N-methyl-[1,1′-biphenyl]-4-carboxamide], for which, in data set [2], the “Bulk stability, chemical and physical” value was “physically and chemically stable”; the “Degradation by HPLC” value is reported as “no obvious degradation”; the “Form change by XRPD” value was “no form change”. Moreover, in data set [3] (FaSSGF, pH 1.6, 37° C.), the “XRPD of residual solid” value is reported as “hemi-HCl salt Pattern A”. Also, the “Form after the solubility test (XRPD)” value in data set [3] (most of media) is “no form change or partially converted to free form Pattern A”. The “XRPD of residual solid” value in data set [3] (pH 1.2 HCl buffer, 37° C.) was “Mono-HCl salt Pattern A”. The solubility – broadly, the dissolved amount per volume that the medium holds – in data set [3] (other media (pH 4.5 acetate, pH 6.8 phosphate, water, FaSSIF-v1, HPMC/Pluronic), 37° C., 2 h and 24 h) was in the range of 2 to 80 µg/mL (≈ 4.42 to 177 µM). Besides, the solubility in data set [3] (pH 1.2 HCl buffer, pH 1.6 FaSSGF and pH 5.0 FeSSIF-v1, 37° C.) was 100 to 600 µg/mL (≈ 221 to 1330 µM). Also, in data set [4], the Hygroscopicity result was “slightly hygroscopic” and the “XRPD after DVS test” value is recorded as “still Pattern B”. For the same compound, the “Water absorbed at 80% RH” value in data set [4] (80% RH) is “about 0.8%”.
